Test results published in the NIST ThermoML archive (doi:10.1021/acs.jced.8b00979).

Assay: xn = mol fraction of the nth substance listed
Details: 100 kPa, Liquid; for viscosity: Capillary tube (Ostwald / Ubbelohde) method; for mass density: Vibrating tube method

CCC(C)CO (stereo not given) [2-methyl-1-butanol] + CCCC(C)O
Details | mass density [kg/m3] | viscosity [mPa·s]
288.15 K, x2 = 0 | 823.35 | 6.439
288.15 K, x2 = 0.1 | 822.37 | 6.154
288.15 K, x2 = 0.2 | 821.39 | 5.978
288.15 K, x2 = 0.301 | 820.41 | 5.83
288.15 K, x2 = 0.4 | 819.44 | 5.687
288.15 K, x2 = 0.5 | 818.45 | 5.556
288.15 K, x2 = 0.6 | 817.47 | 5.435
288.15 K, x2 = 0.7 | 816.47 | 5.323
288.15 K, x2 = 0.8 | 815.45 | 5.232
288.15 K, x2 = 0.9 | 814.4 | 5.154
293.15 K, x2 = 0 | 819.64 | 5.3
293.15 K, x2 = 0.1 | 818.65 | 5.034
293.15 K, x2 = 0.2 | 817.65 | 4.881
293.15 K, x2 = 0.301 | 816.65 | 4.762
293.15 K, x2 = 0.4 | 815.65 | 4.649
293.15 K, x2 = 0.5 | 814.64 | 4.548
293.15 K, x2 = 0.6 | 813.63 | 4.459
293.15 K, x2 = 0.7 | 812.6 | 4.377
293.15 K, x2 = 0.8 | 811.57 | 4.314
293.15 K, x2 = 0.9 | 810.5 | 4.251
298.15 K, x2 = 0 | 815.85 | 4.501
298.15 K, x2 = 0.1 | 814.84 | 4.249
298.15 K, x2 = 0.2 | 813.83 | 4.106
298.15 K, x2 = 0.301 | 812.81 | 3.99
298.15 K, x2 = 0.4 | 811.79 | 3.882
298.15 K, x2 = 0.5 | 810.75 | 3.787
298.15 K, x2 = 0.6 | 809.72 | 3.703
298.15 K, x2 = 0.7 | 808.68 | 3.625
298.15 K, x2 = 0.8 | 807.63 | 3.564
298.15 K, x2 = 0.9 | 806.54 | 3.496
303.15 K, x2 = 0 | 812.12 | 3.825
303.15 K, x2 = 0.1 | 811.09 | 3.585
303.15 K, x2 = 0.2 | 810.04 | 3.46
303.15 K, x2 = 0.301 | 808.98 | 3.355
303.15 K, x2 = 0.4 | 807.92 | 3.253
303.15 K, x2 = 0.5 | 806.85 | 3.163
303.15 K, x2 = 0.6 | 805.78 | 3.093
303.15 K, x2 = 0.7 | 804.7 | 3.028
303.15 K, x2 = 0.8 | 803.62 | 2.973
303.15 K, x2 = 0.9 | 802.49 | 2.91
308.15 K, x2 = 0 | 808.29 | 3.265
308.15 K, x2 = 0.1 | 807.23 | 3.047
308.15 K, x2 = 0.2 | 806.15 | 2.928
308.15 K, x2 = 0.301 | 805.06 | 2.83
308.15 K, x2 = 0.4 | 803.97 | 2.735
308.15 K, x2 = 0.5 | 802.86 | 2.653
308.15 K, x2 = 0.6 | 801.76 | 2.589
308.15 K, x2 = 0.7 | 800.64 | 2.53
308.15 K, x2 = 0.8 | 799.52 | 2.482
308.15 K, x2 = 0.9 | 798.36 | 2.422
313.15 K, x2 = 0 | 804.41 | 2.783
313.15 K, x2 = 0.1 | 803.33 | 2.586
313.15 K, x2 = 0.2 | 802.22 | 2.481
313.15 K, x2 = 0.301 | 801.08 | 2.398
313.15 K, x2 = 0.4 | 799.95 | 2.317
313.15 K, x2 = 0.5 | 798.81 | 2.248
313.15 K, x2 = 0.6 | 797.67 | 2.196
313.15 K, x2 = 0.7 | 796.51 | 2.151
313.15 K, x2 = 0.8 | 795.35 | 2.112
313.15 K, x2 = 0.9 | 794.14 | 2.062
318.15 K, x2 = 0 | 800.47 | 2.379
318.15 K, x2 = 0.1 | 799.36 | 2.199
318.15 K, x2 = 0.2 | 798.21 | 2.11
318.15 K, x2 = 0.301 | 797.03 | 2.037
318.15 K, x2 = 0.4 | 795.86 | 1.968
318.15 K, x2 = 0.5 | 794.68 | 1.91
318.15 K, x2 = 0.6 | 793.49 | 1.869
318.15 K, x2 = 0.7 | 792.29 | 1.835
318.15 K, x2 = 0.8 | 791.09 | 1.805
318.15 K, x2 = 0.9 | 789.84 | 1.764
323.15 K, x2 = 0 | 796.47 | 2.06
323.15 K, x2 = 0.1 | 795.33 | 1.898
323.15 K, x2 = 0.2 | 794.13 | 1.817
323.15 K, x2 = 0.301 | 792.91 | 1.754
323.15 K, x2 = 0.4 | 791.7 | 1.696
323.15 K, x2 = 0.5 | 790.47 | 1.649
323.15 K, x2 = 0.6 | 789.24 | 1.618
323.15 K, x2 = 0.7 | 788 | 1.59
323.15 K, x2 = 0.8 | 786.75 | 1.56
323.15 K, x2 = 0.9 | 785.47 | 1.525
328.15 K, x2 = 0 | 792.41 | 1.787
328.15 K, x2 = 0.1 | 791.24 | 1.649
328.15 K, x2 = 0.2 | 789.99 | 1.578
328.15 K, x2 = 0.301 | 788.72 | 1.525
328.15 K, x2 = 0.4 | 787.46 | 1.476
328.15 K, x2 = 0.5 | 786.19 | 1.44
328.15 K, x2 = 0.6 | 784.91 | 1.418
328.15 K, x2 = 0.7 | 783.62 | 1.396
328.15 K, x2 = 0.8 | 782.33 | 1.371
328.15 K, x2 = 0.9 | 781 | 1.346
